Measurements published in patent US8859580B2 (Boehringer Ingelheim International GmbH, priority 2007, dated 2014).

What follows are compounds tested against T1, 11β-HSD1 (Homo sapiens, UniProt P28845) (assay: In vitro inhibition of 11β-HSD1, HTRF detection of cortisol generated from cortisone by human liver microsomes). Details: 11β-HSD IC50 (nM), 1 hour at 37° C., pH 6.0, NADPH 200 μM, cortisone 80 nM, inhibition relative to carbenoxolone signal.
T1 construct: detecting cortisol generated from cortisterone by human liver microsomes; from tissue; host or cells: human liver microsomes
Type: biochemical
Method in brief: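 Inhibition expressed against the carbenoxolone signal and fitted to IC50 curves. Readout: HTRF competition between microsomal cortisol and XL665-labelled cortisol for Eu-cryptate anti-cortisol antibody (typically 2 h), with emission ratio 665/615 calibrated to cortisol concentration.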

T1 sequence (P28845 whole entry): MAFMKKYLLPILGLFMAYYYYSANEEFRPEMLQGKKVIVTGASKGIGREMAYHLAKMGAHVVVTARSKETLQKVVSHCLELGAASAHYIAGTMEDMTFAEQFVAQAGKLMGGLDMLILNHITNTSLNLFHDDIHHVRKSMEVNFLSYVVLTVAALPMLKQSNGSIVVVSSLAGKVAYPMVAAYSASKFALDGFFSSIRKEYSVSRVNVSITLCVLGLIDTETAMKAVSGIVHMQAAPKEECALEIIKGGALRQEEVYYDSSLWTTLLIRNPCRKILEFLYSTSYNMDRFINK

| Compound | IC50 |
| --- | --- |
| COc1cc2c(cc1C)[C@@]1(C)CCN(C(=O)c3ccc4nc[nH]c4c3)[C@@H](C2)C1(C)C (stereo in doubt) [Example 64, (3H-Benzoimidazol-5-yl)-[(2S,6R)-9-methoxy-6,8,11,11-tetramethyl-1,2,5,6-tetrahydro-4H-2,6-methano-benzo[d]azocin-3-yl]-methanone] | 753 nM |
| CC1(C)[C@H]2Cc3ccccc3[C@]1(C)CCN2C(=O)c1ccc(O)cc1 [Example 318, (4-Hydroxy-phenyl)-[(2R,6S)-6,11,11-trimethyl-1,2,5,6-tetrahydro-4H-2,6-methano-benzo[d]azocin-3-yl]-methanone] | 31 nM |
| C[C@H]1[C@H]2Cc3ccc(O)cc3[C@]1(C)CCN2C(=O)c1ccccc1[N+](=O)[O-] [Example 115, [(2R,6R,11R)-8-Hydroxy-6,11-dimethyl-1,2,5,6-tetrahydro-4H-2,6-methano-benzo[d]azocin-3-yl]-(2-nitro-phenyl)-methanone] | 1590 nM |
| CCOC(=O)c1ccc2c(c1)[C@]1(C)CCN(C(=O)c3ccc4nc[nH]c4c3)[C@H](C2)[C@H]1C [Example 91, (2R,6R,11S)-3-(3H-Benzoimidazole-5-carbonyl)-6,11-dimethyl-1,2,3,4,5,6-hexahydro-2,6-methano-benzo[d]azocine-8-carboxylic acid ethyl ester] | 711 nM |
| C[C@@H]1[C@H]2Cc3ccc(C(C)(C)O)cc3[C@]1(C)CCN2C(=O)c1ccc2nc[nH]c2c1 [Example 340, (3H-Benzoimidazol-5-yl)-[(2R,6R,11S)-8-(1-hydroxy-1-methyl-ethyl)-6,11-dimethyl-1,2,5,6-tetrahydro-4H-2,6-methano-benzo[d]azocin-3-yl]-methanone] | 67 nM |
| CC1(C)[C@H]2Cc3cc4nccnc4cc3[C@]1(C)CCN2C(=O)c1ccc2nc[nH]c2c1 [Example 235, (3H-Benzoimidazol-5-yl)-[(7R,11S)-6,7,8,9,10,11-hexahydro-11,13,13-trimethyl-6,10-methano-pyrazino[2,3-i][3]benzazocin-8-yl]-methanone] | 95 nM |
| C[C@@H]1[C@H]2Cc3ccc(C(=O)N(C)C)cc3[C@]1(C)CCN2C(=O)c1ccc2nc[nH]c2c1 [Example 155, (2R,6R,11S)-3-(3H-Benzoimidazole-5-carbonyl)-6,11-dimethyl-1,2,3,4,5,6-hexahydro-2,6-methano-benzo[d]azocine-8-carboxylic acid dimethylamide] | 354 nM |
| CC(=O)c1ccc2c(c1)[C@]1(C)CCN(C(=O)c3ccc4nc[nH]c4c3)[C@H](C2)C1(C)C [Example 204, 1-[(2R,6S)-3-(3H-Benzoimidazole-5-carbonyl)-6,11,11-trimethyl-1,2,3,4,5,6-hexahydro-2,6-methano-benzo[d]azocin-8-yl]-ethanone] | 27 nM |
| CC1(C)[C@H]2Cc3c(O)cccc3[C@]1(C)CCN2C(=O)c1ccc(CN2CCCC2=O)cc1 [Example 130, 1 -{4-[(2R,6S)-10-Hydroxy-6,11,11-trimethyl-1,2,5,6-tetrahydro-4H-2,6-methano-benzo[d]azocine-3-carbonyl]-benzyl}-pyrrolidin-2-one] | 1610 nM |
| CC1(C)[C@H]2Cc3c(O)cccc3[C@]1(C)CCN2C(=O)c1ccc(CN)cc1 [Example 117, (4-Aminomethyl-phenyl)-[(2R,6S)-10-hydroxy-6,11,11-trimethyl-1,2,5,6-tetrahydro-4H-2,6-methano-benzo[d]azocin-3-yl]-methanone] | 1420 nM |
| CN(C)S(=O)(=O)c1ccc2c(c1)C[C@H]1N(C(=O)c3ccc4nc[nH]c4c3)CC[C@]2(C)C1(C)C [Example 237, (2R,6S)-3-(3H-Benzoimidazole-5-carbonyl)-6,11,11-trimethyl-1,2,3,4,5,6-hexahydro-2,6-methano-benzo[d]azocine-9-sulfonic acid dimethylamide] | 916 nM |
| C[C@@H]1[C@H]2Cc3ccc(-c4nnco4)cc3[C@]1(C)CCN2C(=O)c1ccc2nc[nH]c2c1 [Example 334, (3H-Benzoimidazol-5-yl)-[(2R,6R,11S)-6,11 dimethyl-8-[1,3,4]oxadiazol-2-yl-1,2,5,6-tetrahydro-4H-2,6-methano-benzo[d]azocin 3-yl]-methanone] | 104 nM |
| CNC(=O)c1ccc(C(=O)N2CC[C@@]3(C)c4cccc(O)c4C[C@@H]2C3(C)C)cc1 [Example 36, 4-[(2R,6S)-10-Hydroxy-6,11,11-trimethyl-1,2,5,6-tetrahydro-4H-2,6-methano-benzo[d]azocine-3-carbonyl]-N-methyl-benzamide] | 3660 nM |
| CC[C@]12CCN(C(=O)c3ccc4nc[nH]c4c3)[C@H](Cc3ccc(O)cc31)[C@@H]2C (racemic) [Example 87, (3H-Benzoimidazol-5-yl)-(6-ethyl-8-hydroxy-11-methyl-1,2,5,6-tetrahydro-4H-2,6-methano-benzo[d]azocin-3-yl)-methanone] | 622 nM |
| CNC(=O)c1ccc2c(c1)[C@]1(C)CCN(C(=O)c3ccc4nc[nH]c4c3)[C@H](C2)[C@H]1C [Example 156, (2R,6R,11S)-3-(3H-Benzoimidazole-5-carbonyl)-6,11-dimethyl-1,2,3,4,5,6-hexahydro-2,6-methano-benzo[d]azocine-8 carboxylic acid methylamide] | 340 nM |
| CC1(C)[C@H]2Cc3c(O)cccc3[C@]1(C)CCN2C(=O)c1ccc(C(=O)N2CCCCC2)cc1 [Example 169, [(2R,6S)-10-Hydroxy-6,11,11-trimethyl-1,2,5,6-tetrahydro-4H-2,6-methano-benzo[d]azocin-3-yl]-[4-(piperidine-1-carbonyl)-phenyl]-methanone] | 950 nM |
| Cc1ccccc1C(=O)N1CC[C@@]2(C)c3cccc(O)c3C[C@@H]1C2(C)C [Example 5, [(2R,6S)-10-Hydroxy-6,11,11-trimethyl-1,2,5,6-tetrahydro-4H-2,6-methano-benzo[d]azocin-3-yl]-o-tolyl-methanone] | 3100 nM |
| Cc1cc(C(=O)N2CC[C@@]3(C)c4cccc(O)c4C[C@@H]2C3(C)C)ccc1C(=O)N1CCCC1 [Example 35, [(2R,6S)-10-Hydroxy-6,11,11-trimethyl-1,2,5,6-tetrahydro-4H-2,6-methano-benzo[d]azocin-3-yl]-[3-methyl-4-(pyrrolidine-1-carbonyl)-phenyl]-methanone] | 672 nM |
| COc1cc2c(cc1C)C[C@H]1N(C(=O)c3ccc4nc[nH]c4c3)CC[C@]2(C)C1(C)C (stereo in doubt) [Example 62, (3H-Benzoimidazol-5-yl)-[(2R,6S)-8-methoxy-6,9,11,11-tetramethyl-1,2,5,6-tetrahydro-4H-2,6-methano-benzo[d]azocin-3-yl]-methanone] | 109 nM |
| CC1(C)[C@H]2Cc3ccccc3[C@]1(C)CCN2C(=O)c1c[nH]c2ccccc12 [Example 259, (1H-Indol-3-yl)-[(2R,6S)-6,11,11-trimethyl-1,2,5,6-tetrahydro-4H-2,6-methano-benzo[d]azocin-3-yl]-methanone] | 115 nM |
| CN(Cc1ccccc1)C(=O)c1ccc(C(=O)N2CC[C@@]3(C)c4cccc(O)c4C[C@@H]2C3(C)C)cc1 [Example 170, N-Benzyl-4-[(2R,6S)-10-hydroxy-6,11,11-trimethyl-1,2,5,6-tetrahydro-4H-2,6-methano-benzo[d]azocine-3-carbonyl]-N-methyl-benzamide] | 626 nM |
| CCC12CCN(C(=O)c3ccc4nc[nH]c4c3)C(Cc3ccc(O)cc31)C2 (centres unmarked) [Example 90, (3H-Benzoimidazol-5-yl)-(6-ethyl-8-hydroxy-1,2,5,6-tetrahydro-4H-2,6-methano-benzo[d]azocin-3-yl)-methanone] | 468 nM |
| CC(=O)Nc1ccc2c(c1)CC1N(C(=O)c3ccc4nc[nH]c4c3)CCC2(C)C1(C)C (centres unmarked) [Example 179, N-[3-(3H-Benzoimidazole-5-carbonyl)-6,11,11-trimethyl-1,2,3,4,5,6-hexahydro-2,6-methano-benzo[d]azocin-9-yl]-acetamide] | 199 nM |
| CC1(C)[C@H]2Cc3c(C(=O)O)cccc3[C@]1(C)CCN2C(=O)c1ccc2nc[nH]c2c1 [Example 152, (2R,6S)-3-(3H-Benzoimidazole-5-carbonyl)-6,11,11-trimethyl-1,2,3,4,5,6-hexahydro-2,6-methano-benzo[d]azocine-10-carboxylic acid] | 4670 nM |
| CC1(C)[C@H]2Cc3ccccc3[C@]1(C)CCN2C(=O)c1cccc(S(N)(=O)=O)c1 [Example 343, 3-[(2R,6S)-6,11,11-Trimethyl-1,2,5,6-tetrahydro-4H-2,6-methano-benzo[d]azocine-3-carbonyl]-benzenesulfonamide] | 1520 nM |
| CC1(C)[C@H]2Cc3c(O)cccc3[C@]1(C)CCN2C(=O)c1ccc(CNC(=O)c2ccccc2)cc1 [Example 125, N-{4-[(2R,6S)-10-Hydroxy-6,11,11-trimethyl-1,2,5,6-tetrahydro-4H-2,6-methano-benzo[d]azocine-3-carbonyl]-benzyl}-benzamide] | 989 nM |
| Cc1nc2cc3c(cc2n1C)C[C@H]1N(C(=O)c2ccc4nc[nH]c4c2)CC[C@]3(C)C1(C)C [Example 243, (3H-Benzoimidazol-5-yl)-[(6R,10S)-5,6,7,8,9,10-hexahydro-2,3,10,12,12-pentamethyl-6,10-methano-imidazo[4,5-i][3]benzazocin-7-yl]-methanone] | 113 nM |
| C[C@@H]1[C@H]2Cc3ccc(-c4cncnc4)cc3[C@]1(C)CCN2C(=O)c1ccc2nc[nH]c2c1 [Example 252, (3H-Benzoimidazol-5-yl)-[(2R,6R,11S)-6,11-dimethyl-8-pyrimidin-5-yl-1,2,5,6-tetrahydro-4H-2,6-methano-benzo[d]azocin-3-yl]-methanone] | 61 nM |
| CC(=O)c1ccc(C(=O)N2CC[C@@]3(C)c4cccc(O)c4C[C@@H]2C3(C)C)cc1 [Example 28, 1-{4-[(2R,6S)-10-Hydroxy-6,11,11-trimethyl-1,2,5,6-tetrahydro-4H-2,6-methano-benzo[d]azocine-3-carbonyl]-phenyl}-ethanone] | 3680 nM |
